pEC50: −log10 of the molar value.
Assays:
[1] = Cmax in mouse plasma at 5 mg/kg, po; type: ADME, organism-based; set-up: dose 5 mg/kg, route oral
[2] = molecular target: T1, Peroxisome proliferator-activated receptor gamma (Mus musculus, UniProt P37238)
T1 sequence (P37238 whole entry): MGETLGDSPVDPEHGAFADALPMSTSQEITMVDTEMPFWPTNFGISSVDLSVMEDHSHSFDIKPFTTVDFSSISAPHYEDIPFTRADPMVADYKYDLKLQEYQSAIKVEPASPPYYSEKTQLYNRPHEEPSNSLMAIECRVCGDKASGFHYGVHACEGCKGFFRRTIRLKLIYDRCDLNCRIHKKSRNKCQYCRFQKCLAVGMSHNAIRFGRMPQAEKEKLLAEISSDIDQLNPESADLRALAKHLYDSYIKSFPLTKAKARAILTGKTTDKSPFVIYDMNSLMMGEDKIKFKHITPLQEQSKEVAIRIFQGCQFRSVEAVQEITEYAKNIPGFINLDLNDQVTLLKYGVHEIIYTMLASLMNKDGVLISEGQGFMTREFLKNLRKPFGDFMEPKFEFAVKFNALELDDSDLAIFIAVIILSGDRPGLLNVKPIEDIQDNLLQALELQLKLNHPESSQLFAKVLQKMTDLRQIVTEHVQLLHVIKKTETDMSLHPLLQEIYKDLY
Description: Agonist activity at mouse PPARgamma assessed as receptor activation by cell based assay

[3] = molecular target: T2, Peroxisome proliferator-activated receptor gamma (Homo sapiens, UniProt P37231)
T2 sequence (P37231 whole entry): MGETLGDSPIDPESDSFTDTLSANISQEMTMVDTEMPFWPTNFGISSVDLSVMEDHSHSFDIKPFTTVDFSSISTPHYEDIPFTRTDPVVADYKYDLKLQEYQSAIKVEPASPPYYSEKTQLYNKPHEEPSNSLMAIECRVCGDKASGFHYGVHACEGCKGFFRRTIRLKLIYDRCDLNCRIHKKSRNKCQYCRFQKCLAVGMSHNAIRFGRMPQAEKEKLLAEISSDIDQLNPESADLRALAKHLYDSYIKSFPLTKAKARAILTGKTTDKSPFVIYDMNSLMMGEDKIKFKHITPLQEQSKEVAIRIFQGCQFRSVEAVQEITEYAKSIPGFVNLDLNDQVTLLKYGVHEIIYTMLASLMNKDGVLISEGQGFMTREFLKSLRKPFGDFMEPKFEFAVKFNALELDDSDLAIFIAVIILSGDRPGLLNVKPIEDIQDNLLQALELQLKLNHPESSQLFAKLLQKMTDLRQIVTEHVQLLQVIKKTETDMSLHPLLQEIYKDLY
Description: Agonist activity at human PPARgamma assessed as receptor activation by cell based assay

[4] = molecular target: T3, Peroxisome proliferator-activated receptor delta (Homo sapiens, UniProt Q03181)
T3 sequence (Q03181 whole entry): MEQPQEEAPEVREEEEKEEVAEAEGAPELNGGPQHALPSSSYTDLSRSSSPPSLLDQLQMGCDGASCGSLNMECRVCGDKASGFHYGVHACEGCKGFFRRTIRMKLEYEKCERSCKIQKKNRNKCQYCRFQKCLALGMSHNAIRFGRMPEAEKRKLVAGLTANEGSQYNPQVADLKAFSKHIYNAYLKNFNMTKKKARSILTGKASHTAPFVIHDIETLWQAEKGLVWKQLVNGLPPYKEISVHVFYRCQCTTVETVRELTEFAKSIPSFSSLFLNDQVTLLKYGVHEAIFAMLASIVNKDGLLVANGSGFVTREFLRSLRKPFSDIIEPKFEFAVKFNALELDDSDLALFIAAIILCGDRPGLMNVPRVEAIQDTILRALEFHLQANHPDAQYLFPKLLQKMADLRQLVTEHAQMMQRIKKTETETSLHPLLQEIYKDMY
Description: Agonist activity at human PPARdelta assessed as receptor activation by cell based assay

[5] = molecular target: T4, Peroxisome proliferator-activated receptor delta (Mus musculus, UniProt P35396)
T4 sequence (P35396 whole entry): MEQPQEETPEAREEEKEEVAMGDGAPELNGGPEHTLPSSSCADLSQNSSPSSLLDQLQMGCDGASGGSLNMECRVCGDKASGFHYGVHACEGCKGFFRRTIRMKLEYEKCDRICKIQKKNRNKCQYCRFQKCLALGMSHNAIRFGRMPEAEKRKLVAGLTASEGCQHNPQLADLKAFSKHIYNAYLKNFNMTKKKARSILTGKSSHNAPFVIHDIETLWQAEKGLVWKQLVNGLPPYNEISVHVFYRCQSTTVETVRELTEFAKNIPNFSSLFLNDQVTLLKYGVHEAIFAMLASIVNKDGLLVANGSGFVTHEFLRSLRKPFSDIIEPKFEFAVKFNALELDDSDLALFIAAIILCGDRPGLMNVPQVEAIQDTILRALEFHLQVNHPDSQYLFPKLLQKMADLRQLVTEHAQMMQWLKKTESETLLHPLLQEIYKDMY
Description: Agonist activity at mouse PPARdelta assessed as receptor activation by cell based assay

[6] = AUC in mouse plasma at 5 mg/kg, po; type: ADME, organism-based; set-up: dose 5 mg/kg, route oral
Mus musculus [7] = test: Reduction of VLDL cholesterol level in human Apo-A1 transgenic C57B6 mouse at 20 mg/kg, po bid after 5 days; type: functional; set-up: scale not given: the % may be the effect or the level left
[8] = molecular target: T5, Peroxisome proliferator-activated receptor alpha (Mus musculus) (UniProt P23204)
T5 sequence (whole entry): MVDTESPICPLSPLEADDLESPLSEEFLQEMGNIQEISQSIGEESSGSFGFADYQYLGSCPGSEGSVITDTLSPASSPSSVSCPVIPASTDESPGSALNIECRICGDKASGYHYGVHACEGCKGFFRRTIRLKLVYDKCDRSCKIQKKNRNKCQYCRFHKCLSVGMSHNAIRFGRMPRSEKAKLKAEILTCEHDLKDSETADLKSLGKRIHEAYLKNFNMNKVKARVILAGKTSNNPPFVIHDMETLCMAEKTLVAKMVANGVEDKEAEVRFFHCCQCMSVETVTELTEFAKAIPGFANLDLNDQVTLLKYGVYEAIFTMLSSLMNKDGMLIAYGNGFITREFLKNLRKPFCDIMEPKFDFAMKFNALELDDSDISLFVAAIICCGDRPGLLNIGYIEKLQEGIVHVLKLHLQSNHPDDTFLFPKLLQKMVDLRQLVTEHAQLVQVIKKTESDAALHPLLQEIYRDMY
Description: (§1) Agonist activity at mouse PPARalpha assessed as receptor activation by cell based assay

[9] = Half life in mouse plasma at 0.2 mg/kg, iv or 5 mg/kg, po; type: ADME, organism-based
Mus musculus [10] = test: Reduction of LDL cholesterol level in human Apo-A1 transgenic C57B6 mouse at 20 mg/kg, po bid after 5 days; type: functional; set-up: scale not given: the % may be the effect or the level left
[11] = Volume of distribution in mouse plasma at 0.2 mg/kg, iv or 5 mg/kg, po; type: ADME, organism-based; details: read-out: Vdss
[12] = molecular target: T6, Peroxisome proliferator-activated receptor alpha (Homo sapiens, UniProt Q07869)
T6 sequence (Q07869 whole entry): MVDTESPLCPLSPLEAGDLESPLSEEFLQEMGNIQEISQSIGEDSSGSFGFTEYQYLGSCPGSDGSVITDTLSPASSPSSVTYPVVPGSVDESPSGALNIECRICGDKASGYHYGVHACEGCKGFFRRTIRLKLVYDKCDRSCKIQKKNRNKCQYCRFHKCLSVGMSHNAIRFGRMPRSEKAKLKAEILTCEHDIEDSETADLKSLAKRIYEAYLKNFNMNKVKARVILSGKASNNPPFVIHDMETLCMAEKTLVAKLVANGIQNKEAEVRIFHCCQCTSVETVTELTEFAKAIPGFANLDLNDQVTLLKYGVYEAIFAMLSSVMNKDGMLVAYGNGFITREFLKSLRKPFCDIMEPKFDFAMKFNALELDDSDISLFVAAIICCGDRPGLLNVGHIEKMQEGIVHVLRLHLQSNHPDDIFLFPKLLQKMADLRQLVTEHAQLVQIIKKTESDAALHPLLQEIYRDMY
Description: Agonist activity at human PPARalpha assessed as receptor activation by cell based assay

[13] = Clearance in mouse plasma at 0.2 mg/kg, iv or 5 mg/kg, po; type: ADME, organism-based
[14] = molecular target: T7, Peroxisome proliferator-activated receptor alpha (Mus musculus, UniProt P23204)
T7 sequence (P23204 whole entry): T5 sequence (whole entry)
Description: as §1

Mus musculus [15] = test: Elevation of HDL cholesterol level in human Apo-A1 transgenic C57B6 mouse at 20 mg/kg, po bid after 5 days; type: functional
[16] = Oral bioavailability in mouse at 5 mg/kg; type: ADME, organism-based; details: in vivo
Mus musculus [17] = test: Reduction of triglyceride level in human Apo-A1 transgenic C57B6 mouse at 20 mg/kg, po bid after 5 days; type: functional; set-up: scale not given: the % may be the effect or the level left

Cmax [1]: 4520 ng/mL
pEC50 [2]: 6.22
pEC50 [3]: 5.96
pEC50 [4]: < 5.00
pEC50 [5]: < 5.00
AUC [6]: 18800 ng·h/mL
Activity [8]: 123%
half-life [9]: 4.9 h
Vd [11]: 0.22 L/kg
pEC50 [12]: 8.30
clearance [13]: 0.78 mL/min/kg
pEC50 [14]: 7.70
bioavailability [16]: 16%
Structure (SMILES): O=C(NCc1ccc(NS(=O)(=O)C(F)(F)F)cc1)c1ccc(-c2ccc(Cl)cc2)cc1
Activity (Mus musculus [7]): -85%
Activity (Mus musculus [10]): -55%
Activity (Mus musculus [15]): 102%
Activity (Mus musculus [17]): -69%
